Values joined by “and” are separate entries in the source; they are usually repeats but may differ in a detail not shown here. Identical values can stand only once.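 These data come from cells grown in 96-well plates and exposed to compound for 48 hours at five concentrations. The concentration for 50% growth inhibition is given as GI50. TGI: total growth inhibition.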
Columns and labels:
Assay in all cases: DTP human tumour cell line panel, 48 h
MDA-MB-231 breast = test system: MDA-MB-231 breast
NCI-H23 lung = test system: NCI-H23 lung
KM12 colon = test system: KM12 colon
DU-145 prostate = test system: DU-145 prostate
OVCAR-8 ovarian = test system: OVCAR-8 ovarian
HCC-2998 colon = test system: HCC-2998 colon
SK-MEL-28 melanoma = test system: SK-MEL-28 melanoma
A549 NSCLC = test system: A549 NSCLC
UO-31 renal = test system: UO-31 renal
SR leukemia = test system: SR leukemia

| SMILES | GI50 (MDA-MB-231 breast) | TGI (MDA-MB-231 breast) | GI50 (NCI-H23 lung) | TGI (NCI-H23 lung) | GI50 (KM12 colon) | TGI (KM12 colon) | GI50 (DU-145 prostate) | TGI (DU-145 prostate) | GI50 (OVCAR-8 ovarian) | TGI (OVCAR-8 ovarian) | GI50 (HCC-2998 colon) | TGI (HCC-2998 colon) | GI50 (SK-MEL-28 melanoma) | TGI (SK-MEL-28 melanoma) | GI50 (A549 NSCLC) | TGI (A549 NSCLC) | GI50 (UO-31 renal) | TGI (UO-31 renal) | TGI (SR leukemia) | GI50 (SR leukemia) |
| --- | --- | --- | --- | --- | --- | --- | --- | --- | --- | --- | --- | --- | --- | --- | --- | --- | --- | --- | --- | --- |
| CC1(C)CCc2c(c(N=Nc3ccccc3F)c3ccccc3c2O)O1 | 17.6 µM | 37.9 µM | 16.8 µM | 58.6 µM | 23 µM | 65.1 µM | 87.5 µM | > 100 µM | 23.3 µM | 51.4 µM | 22.6 µM | > 100 µM | > 100 µM | > 100 µM | 34 µM | > 100 µM | 54.7 µM | > 100 µM |  |  |
| COc1ccc(C[C@]23CCC(=O)N2CCc2cc(OC)c(O)cc23)cc1O |  |  |  | > 100 µM |  | > 100 µM |  |  |  | 78.6 µM |  | > 100 µM |  | > 100 µM |  | > 100 µM |  | > 100 µM |  |  |
| COc1ccccc1NC(=O)C1=C(C)NC(C)=C(C(=O)Nc2ccccc2OC)C1c1ccccc1Cl |  |  |  | > 100 µM |  | > 100 µM |  |  |  | > 100 µM |  | > 100 µM |  | > 100 µM |  | > 100 µM |  | > 100 µM | > 100 µM |  |
| O=C(O)CCSC(=O)Nc1cccc2ccccc12 |  |  |  | > 100 µM |  | > 100 µM |  |  |  | > 100 µM |  | > 100 µM |  | > 100 µM |  | > 100 µM |  | > 100 µM | > 100 µM |  |
| CC[O-].CC[O-].O=C([CH-]C(=O)c1ccccc1)CCCCCCC(=O)[CH-]C(=O)c1ccccc1.[Ti+4] |  |  | > 100 µM | > 100 µM | > 100 µM | > 100 µM |  |  | > 100 µM | > 100 µM | > 100 µM | > 100 µM | > 100 µM | > 100 µM | > 100 µM | > 100 µM | > 100 µM | > 100 µM |  |  |
| O=S(=O)(O)n1ccnc1 (tested in a mixture with another compound) |  | > 100 µM |  | > 100 µM |  | > 100 µM |  | > 100 µM |  | > 100 µM |  |  |  | > 100 µM |  | > 100 µM |  | > 100 µM | > 100 µM |  |
| CN=C1CN=C(OP(=O)(N2CCOCC2)N2CCOCC2)c2cc(Cl)ccc2N1 |  |  |  | > 100 µM |  | > 100 µM |  |  |  | > 100 µM |  | > 100 µM |  | > 100 µM |  | > 100 µM |  | > 100 µM | > 100 µM |  |
| O=C(O)CN1C(=O)CN=C(c2ccccn2)c2cc(Cl)ccc21 |  | > 100 µM |  |  |  | > 100 µM |  | > 100 µM |  | > 100 µM |  |  |  | > 100 µM |  | > 100 µM |  | > 100 µM | > 100 µM |  |
| COc1ccc(-c2oc3c(OC)c(OC)c(OC)c(O)c3c(=O)c2OC)cc1O |  |  | < 0.01 µM |  | 0.638 µM | 10.3 µM |  |  | < 0.01 µM | > 100 µM |  | 8.64 µM |  | > 100 µM | < 0.01 µM | 12.3 µM | < 0.01 µM | 5.81 µM | 0.112 µM | < 0.01 µM |
| Cc1ccc(/C=N/NS(=O)(=O)c2ccccc2)cc1C |  |  |  | > 100 µM |  | > 100 µM |  |  |  | > 100 µM |  | > 100 µM |  | > 100 µM |  | > 100 µM |  | > 100 µM | > 100 µM |  |
| CC(=O)[CH-]C(C)=O.CC(=O)[CH-]C(C)=O.[Cl-].[O]=[V] |  |  | 14.2 µM | 34.5 µM |  |  |  |  | 46.4 µM | > 100 µM | 37.1 µM | > 100 µM | 25.7 µM | > 100 µM | 36.3 µM | > 100 µM | 63.3 µM | > 100 µM | > 100 µM | > 100 µM |
| COc1cccc(C=O)c1[O-].COc1cccc(C=O)c1[O-].[Zn+2] |  |  |  | > 100 µM |  | > 100 µM |  |  |  | > 100 µM |  | > 100 µM |  | > 100 µM |  | > 100 µM |  | 90.7 µM | > 100 µM |  |
| CC(=O)OC1=C2CC[C@@H]3C(CC[C@@]4(C)C3CC[C@@H]4OC(C)=O)[C@@]2(C)CC(C#N)C1=O (some centres undefined) |  |  |  | > 100 µM |  | > 100 µM |  |  |  | > 100 µM |  | > 100 µM |  | > 100 µM |  | > 100 µM |  | > 100 µM |  |  |
| C=CCOc1ccc(N)c([N+](=O)[O-])c1 |  |  |  | > 100 µM |  | > 100 µM |  | > 100 µM |  | > 100 µM |  | > 100 µM |  | > 100 µM |  | > 100 µM |  | > 100 µM | > 100 µM |  |
| CS(=O)(=O)NNS(=O)(=O)c1ccc(F)cc1 |  |  |  | > 100 µM |  | > 100 µM |  |  |  | > 100 µM |  | > 100 µM |  |  |  | > 100 µM |  | > 100 µM | > 100 µM |  |
| Cc1nc2ccccc2c(/C=C/c2ccccc2)c1C(=O)/C=C/c1ccc(C(F)(F)F)cc1 | 1.65 µM | 3.38 µM | 1.25 µM | 3.11 µM |  |  |  |  | 1.78 µM | 7.98 µM | 1.4 µM | 2.9 µM | 1.74 µM | 3.27 µM | 2.03 µM | 4.84 µM | 1.07 µM | 2.26 µM | > 100 µM | 0.38 µM |
| CC[C@H]1CCC/C=C/[C@@H]2C[C@H](O)C[C@H]2[C@H](O)/C=C/C(=O)O1 | 0.0213 µM | 0.0416 µM | 0.0414 µM | 5.23 µM | 0.0227 µM | 0.0523 µM | 0.179 µM | > 100 µM | 0.0432 µM | > 100 µM |  |  | 0.0219 µM | 0.134 µM | 0.0434 µM | > 100 µM | 0.0267 µM | > 37.2 µM | 0.115 µM | 0.0292 µM |
| CCOC(=O)c1c(-c2ccc(OC)c(O)c2)c(C#N)c(=S)n(C2OC(COC(C)=O)C(OC(C)=O)C(OC(C)=O)C2OC(C)=O)c1-c1ccccc1 (centres undefined) |  |  | 22.2 µM and > 100 µM | 60.3 µM and > 100 µM | 27 µM and > 100 µM | 83.1 µM and > 100 µM | 27.3 µM and > 100 µM | 76.3 µM and > 100 µM |  | > 100 µM | 31.8 µM and > 100 µM | > 100 µM | 32.5 µM and > 100 µM | > 100 µM |  | > 100 µM | 37 µM and > 100 µM | > 100 µM | > 100 µM |  |
| CCOC(=O)CNC(=O)OCc1ccccc1 |  |  |  | > 100 µM |  | > 100 µM |  |  |  | > 100 µM |  | > 100 µM |  | > 100 µM |  | > 100 µM |  | > 100 µM |  |  |
| CO/C=C(\Br)c1ccc2c(c1)OCO2 |  |  |  | > 100 µM |  | > 100 µM |  |  |  | > 100 µM |  |  |  | > 100 µM |  | > 100 µM |  | > 100 µM | > 100 µM |  |

— PubChem BioAssay (NCI)
